In US20220202792A1, “METHODS AND COMPOSITIONS FOR TREATING CHRONIC INFLAMMATORY INJURY, METAPLASIA, DYSPLASIA AND CANCERS OF EPITHELIAL TISSUES” (University of Houston System, priority 2019, published 2022):

Legend:
[1] = tested on: esophageal squamous stem cells (ESO stem cells, Krt5+); test: High throughput chemical screening and dose response on GFP-labeled stem cells; type: cell-based, human; conditions: in the presence of 1 μM Ponatinib
[2] = molecular target: T1, JMJD2B (KDM4B) (Homo sapiens, UniProt O94953); conditions: demethylase activity in vitro; cited from earlier work
T1 sequence (O94953 1-1096): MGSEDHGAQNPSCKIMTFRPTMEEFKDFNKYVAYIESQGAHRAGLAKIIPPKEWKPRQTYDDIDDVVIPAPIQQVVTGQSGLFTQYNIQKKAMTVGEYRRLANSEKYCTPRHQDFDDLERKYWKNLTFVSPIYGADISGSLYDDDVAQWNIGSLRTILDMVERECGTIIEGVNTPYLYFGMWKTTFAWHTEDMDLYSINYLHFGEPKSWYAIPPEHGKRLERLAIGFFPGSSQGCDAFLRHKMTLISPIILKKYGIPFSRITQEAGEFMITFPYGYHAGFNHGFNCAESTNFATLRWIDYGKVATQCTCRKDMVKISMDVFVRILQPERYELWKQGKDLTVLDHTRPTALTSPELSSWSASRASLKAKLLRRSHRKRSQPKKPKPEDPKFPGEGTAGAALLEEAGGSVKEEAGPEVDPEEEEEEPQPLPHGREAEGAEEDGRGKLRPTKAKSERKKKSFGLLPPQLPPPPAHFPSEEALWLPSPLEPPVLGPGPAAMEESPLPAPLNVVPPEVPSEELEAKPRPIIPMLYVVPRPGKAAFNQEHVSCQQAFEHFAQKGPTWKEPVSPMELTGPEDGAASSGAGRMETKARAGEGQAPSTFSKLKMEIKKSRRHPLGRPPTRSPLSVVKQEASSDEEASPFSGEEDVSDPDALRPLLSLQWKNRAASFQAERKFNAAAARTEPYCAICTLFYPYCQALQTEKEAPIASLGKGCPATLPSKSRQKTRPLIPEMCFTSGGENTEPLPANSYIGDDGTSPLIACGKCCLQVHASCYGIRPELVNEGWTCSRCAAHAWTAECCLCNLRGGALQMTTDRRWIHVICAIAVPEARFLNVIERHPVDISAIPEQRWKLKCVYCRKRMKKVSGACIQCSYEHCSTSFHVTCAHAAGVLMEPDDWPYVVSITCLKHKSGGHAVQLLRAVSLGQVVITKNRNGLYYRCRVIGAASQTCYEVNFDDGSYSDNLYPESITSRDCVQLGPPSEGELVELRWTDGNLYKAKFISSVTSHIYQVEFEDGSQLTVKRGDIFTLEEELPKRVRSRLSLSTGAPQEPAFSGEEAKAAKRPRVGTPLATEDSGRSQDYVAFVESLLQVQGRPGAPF

[3] = tested on: Barrett's stem cells and Esophageal stem cells; test: Co-culture of Barrett's stem cell lines and Esophageal stem cells; type: cell-based, human; conditions: in the presence of Ponatinib
[4] = tested on: Barrett's stem cells (BE stem cells, Krt7+); test: High throughput chemical screening and dose response on GFP-labeled stem cells; type: cell-based, human

Clc1ccc(N/N=C(\c2ccccc2)c2ccccn2)nc1 [JIB04]
effect on Esophageal stem cells [1]: without affecting | IC50 [2]: ~440 nM | effect on Esophageal squamous stem cells in co-culture [3]: promoting | lethality to Barrett's stem cells in co-culture ([3]; nine Barrett's stem cell lines): uniform lethality to all Barrett's stem cells | differential of dose-response curves, BE stem cells versus normal esophageal stem cells ([4]; in the background of a fixed concentration of Ponatinib): ~1,000 fold | lethality towards Barrett's stem cells ([4]; screened in the background of 1 μM Ponatinib): displayed the lethality
